Consider 10 compounds from ChEMBL document CHEMBL1156383, “Isolation and biological evaluation of filiformin, plakortide F, and plakortone G from the Caribbean sponge Plakortis sp” (J Nat Prod, 2001).

What is called IC50 is the point on the concentration scale where inhibition reaches its midpoint. A high value points to weaker potency in that assay. By inhibition is commonly meant the relative decrease from the control value, in per cent. The EC50 is the concentration that produces a half-maximal response. A low value points to a more potent agent. For orientation: MIC means the smallest concentration in the dilution series that meets the test's criterion for growth inhibition. Read a high MIC as a need for much substance.

Values after ≈ are worked out from the molar mass of the structure shown. Active and inactive are the calls of the source.

One experiment deals with THP-1. Nature of the experiment: Immunostimulatory activity in human THP1 cells assessed as LPS-induced NF-kappaB activation at =< 50 ug/mL by luciferase reporter gene assay. Format: functional, cell-based. (In general: A reporter such as luciferase makes a cellular process visible.)
The subject of experiment [1] is Plasmodium berghei. Nature of the experiment: Antimalarial activity as parasitaemia against Plasmodium berghei ANKA infected Swiss albino mice (Mus musculus) at 100 uM/kg intraperitoneal dose after 3 days. In kind it is functional.
For experiment [2], the system named is Plasmodium falciparum. Nature of the experiment: Antimalarial activity against Plasmodium falciparum D6. Format: functional, organism-based.
The subject of the next experiment is Toxoplasma gondii. Briefly: Antiparasitic activity against Toxoplasma gondii RH infected in mouse L929 cells assessed as [3H]uracil incorporation at 1 uM after 72 hrs by scintillation counting. In kind it is functional.
Another experiment deals with Hepatitis B virus. Nature of the experiment: Antiviral activity against Hepatitis B virus cell culture assay. Format: functional, organism-based.
Experiment [3] deals with Plasmodium falciparum. Nature of the experiment: Antimalarial activity against chloroquine-resistant Plasmodium falciparum W2. Format: functional, organism-based.
For experiment [4], the system named is Mycobacterium tuberculosis. Briefly: Antitubercular activity against Mycobacterium tuberculosis at 6.25 ug/mL. Format: functional.
Another experiment relates to Cryptococcus neoformans. Briefly: Antifungal activity against Cryptococcus neoformans. In kind it is functional, organism-based.
Experiment [5] concerns Plasmodium berghei. Nature of the experiment: Antimalarial activity against Plasmodium berghei ANKA infected Swiss albino mice (Mus musculus) intraperitoneal dose over 3 days. Format: functional, organism-based.
For the next experiment, the system named is SK-MEL-28. Nature of the experiment: Cytotoxicity against human SK-MEL-28 cells by alamar blue assay. Format: functional, cell-based. (Alamar Blue is a resazurin reagent that responds to reducing activity.)
Another experiment concerns A549. Nature of the experiment: Cytotoxicity against human A549 cells by alamar blue assay. In kind it is functional, cell-based.
The test system of another experiment is Candida albicans. Nature of the experiment: Antifungal activity against Candida albicans. Format: functional, organism-based.
Another experiment has as its system P388. Briefly: Cytotoxicity against mouse P388 cells by alamar blue assay. In kind it is functional, cell-based.
Another experiment deals with HT-29. Nature of the experiment: Cytotoxicity against human HT-29 cells by alamar blue assay. Format: functional, cell-based.
For experiment [6], the system named is Human immunodeficiency virus. Briefly: Antiviral activity against Human immunodeficiency virus. To be noted: Human immunodeficiency virus 1. Format: functional, organism-based.
A further experiment relates to Pseudomonas aeruginosa. Briefly: Antibacterial activity against Pseudomonas aeruginosa. In kind it is functional, organism-based.
Experiment [7] relates to Mycobacterium intracellulare. Briefly: Antibacterial activity against Mycobacterium intracellular. In kind it is functional, organism-based.
In experiment [8] the test system is Staphylococcus aureus. Briefly: Antibacterial activity against Staphylococcus aureus. In kind it is functional, organism-based.
In experiment [9] the test system is Staphylococcus aureus. Nature of the experiment: Antibacterial activity against methicillin-resistant Staphylococcus aureus. In kind it is functional, organism-based.
For a further experiment, the system named is Aspergillus fumigatus. Briefly: Antifungal activity against Aspergillus fumigatus. Format: functional, organism-based.
Experiment [10] has as its system Plasmodium berghei. Briefly: Antimalarial activity as increased survival against Plasmodium berghei ANKA infected Swiss albino mice (Mus musculus) at 100 uM/kg intraperitoneal dose. Format: functional, organism-based.
The subject of experiment [11] is Mycobacterium tuberculosis. Nature of the experiment: Antitubercular activity against Mycobacterium tuberculosis. Format: functional.

For the compound `Cc1cc2c(cc1Br)[C@]1(C)CC[C@](C)(CO2)[C@@H]1C`, in the experiment on THP-1, the result was inactive.
Consider `C[C@@H]1CC[C@H]2[C@@H](C)C(=O)O[C@@H]3O[C@@]4(C)CC[C@@H]1[C@]32OO4` [ARTEMISININ], for which the Activity in the experiment with Plasmodium berghei [1] came to 35.9%. Moreover, in the experiment on Plasmodium falciparum [2], the IC50 worked out at 0.012 µg/mL (≈ 0.0425 µM).
For `O=C1C(O)=C([C@H]2CC[C@H](c3ccc(Cl)cc3)CC2)C(=O)c2ccccc21` [ATOVAQUONE], the inhibition at 1 µM with Toxoplasma gondii stood at 100%.
In turn, `CCN(CC)CCCC(C)Nc1ccnc2cc(Cl)ccc12` (stereo not given) [CHLOROQUINE] returned an Activity in the experiment with Plasmodium berghei [1] of 0.1%.
`Nc1ccn([C@@H]2CS[C@H](CO)O2)c(=O)n1` [LAMIVUDINE] showed an EC50 with Hepatitis B virus of 0.062 µg/mL (≈ 0.27 µM).
With `CC/C=C/C(CC)CCC[C@@]1(CC)C[C@H](CC)[C@H](CC(=O)OC)OO1` (stereo not given in full) [PLAKORTIDE F], the half-inhibitory concentration (IC50) in the experiment on Plasmodium falciparum [3] was 0.39 µg/mL (≈ 1.1 µM); with Plasmodium berghei [5], “Not Active”; with SK-MEL-28, 2.5 µg/mL (≈ 7.05 µM); with A549, 2.5 µg/mL (≈ 7.05 µM); in the experiment on P388, 1.25 µg/mL (≈ 3.53 µM); with HT-29, 1.25 µg/mL (≈ 3.53 µM). The IC50 in the experiment with Plasmodium falciparum [2] stood at 0.48 µg/mL (≈ 1.35 µM). Moreover, in experiment [4], testing at 6.25 µg/mL gave an inhibition of 29%. Also, the result (in the experiment on Cryptococcus neoformans; with Candida albicans; with Pseudomonas aeruginosa; in the experiment with Plasmodium berghei [1]; in experiment [7]; in the experiment on Staphylococcus aureus [8]) was inactive. Moreover, the result with Staphylococcus aureus [9], in the experiment on Aspergillus fumigatus and in the experiment on Plasmodium berghei [10] was inactive. In addition, the results for the 50% effective concentration (EC50) (with Hepatitis B virus; in experiment [6]) were over 100 µg/mL and 13 µM, respectively. In addition, the inhibition at 1 µM in the experiment with Toxoplasma gondii was 67%.
With `CC/C=C/[C@H](CC)CCC[C@@]1(CC)C=C(CC)C(=O)O1` [PLAKORTONE G], the IC50 in the experiment on Plasmodium falciparum [3] was over 4.76 µg/mL; with SK-MEL-28, over 10 µg/mL; in the experiment on A549, over 1 µg/mL; in the experiment with HT-29, over 1 µg/mL; with Plasmodium falciparum [2], 4.2 µg/mL (≈ 15.1 µM). This compound showed an inhibition at 6.25 µg/mL in [4] of 4%. Further, the result (in the experiment on Cryptococcus neoformans; in the experiment on Candida albicans; with Pseudomonas aeruginosa; in experiment [7]; with Staphylococcus aureus [8]; in the experiment with Staphylococcus aureus [9]) was inactive. In addition, the outcome in the experiment on Aspergillus fumigatus was inactive. In addition, the EC50 in the experiment with Hepatitis B virus is over 100 µg/mL.
For the compound `CO[C@H]1/C=C/O[C@@]2(C)Oc3c(C)c(O)c4c(O)c(c(/C=N/N5CCN(C)CC5)c(O)c4c3C2=O)NC(=O)/C(C)=C\C=C\[C@H](C)[C@H](O)[C@@H](C)[C@@H](O)[C@@H](C)[C@H](OC(C)=O)[C@@H]1C` [RIFAMPIN], the MIC in experiment [11] amounted to 0.25 µg/mL (≈ 0.304 µM).
`CC/C(=C(\c1ccccc1)c1ccc(OCCN(C)C)cc1)c1ccccc1` [TAMOXIFEN]: the IC50 with SK-MEL-28, with A549 and in the experiment on HT-29 was 1.86 µg/mL (≈ 5.01 µM) in each case.
Regarding `Cc1cn([C@H]2C[C@H](N=[N+]=[N-])[C@@H](CO)O2)c(=O)[nH]c1=O` [ZIDOVUDINE], in [6], a half-maximal response (EC50) required 0.004 µM.
